Test results taken from patent US20020137154A1, “Methods for improving cell growth and alcohol production during fermentation” (priority 2000, published 2002).

Experiments:
Assay type in all cases: cell-based
[1] = test system: recombinant Escherichia coli KO11; assay: Batch fermentation of E. coli KO11 in 1% CSL medium and glucose with nutrient additives: ethanol production and cell growth; conditions: additive 2 g/L unless indicated; for activity at 2000 µg/mL: Escherichia coli
Description: (§1) Two types of media were tested: 1% CSL and Luria broth (LB). Each contained 97 g of either xylose or glucose per liter. Luria Broth consists of, per liter: 10 g Difco® Tryptone, 5 g Difco® Yeast Extract and 5 g NaCl. The 1% CSL medium consists of Corn Steep Liquor (1% w/v) plus mineral salts (mineral salts per liter: 1 g of KH2PO4. 0.5 g of K2HPO4, 3.1 g of (NH4)2SO4, 0.4 g of MgCl2·6H2), and 20 mg FeCl3·6H2O).
(§2) Luria Broth was prepared by autoclaving a 2× nutrient stock containing, per liter: 20 g Difco® Tryptone, 10 g Difo® Yeast Extract, and 10 g NaCl. Sugars (xylose or glucose) were autoclaved separately. A 1% CSL medium was prepared as follows: Commercial Corn Steep Liquor (CSL; 50% dry weight/50% water) was diluted with tap water to make a 20X stock containing 100 g dry weight of Corn Steep Liquor/L and was adjusted to pH 7.2 with NaOH (50%). After sterilization by autoclaving, the 20X CSL stock was clarified by centrifugation at 5000×g for 10 minutes. Magnesium was added as a 100× stock solution (40 g/L MgCl2·6H2O). Iron was added as a 1000× stock solution made by dissolving 20 g FeCl3·6H2O in 175 mL of HCl and adjusting to 1 L with sterile water. Nitrogen, sulfur and phosphorus were added using a 20× stock solution containing the following (per liter): 20 g of KH2PO4, 10 g of K2HPO4 and 62 g of (NH4)2SO4. Stock solutions containing minerals were sterilized separately by autoclaving. Final media was prepared by adding 750 mL of water to 1 L bottle containing 100 g of xylose or glucose.
(§3) Inocula were grown in same media used for fermentation and were prepared as follows. Three colonies from a fresh plate were used to inoculate seed cultures: 250-mL flask containing 100 mL medium. These cultures were grown with agitation (120 rpm) for 12-16 hours at 35° C. to a final OD550nm of approximately 2.0-2.5. Cells were harvested by centrifugation at 5000×g for 5 minutes, and resuspended in fresh media to an OD550nm of 0.1. The resulting suspension was distributed into 500-mL beakers containing 345 ml each of fermentation medium. Acetaldehyde was added as indicated. Batch fermentations (35° C., 100 rpm) were maintained at pH 6.5 by the automatic addition of 2N KOH. Cell mass, ethanol, and base addition (2N KOH) were recorded during 96 hours of incubation.
(§4) Equivalent amounts of distilled water were added instead of the acetaldehyde in control experiments.
(§5) Additives (e.g., as listed in Table 1) were dissolved in 5 mL di-H2O. Solutions with pH lower than 5 were neutralized to pH 6.5 with 2N KOH. Nutritional supplements were then filter-sterilized (0.45 μm filter disk) directly into the fermentation vessel containing the culture. The final concentration of all additives in the culture medium was 2 g/L unless otherwise indicated.
(§6) Cell mass was estimated by measuring OD550nm using Baush & Lomb® Spectronic 70 spectrophotometer. […] Ethanol was measured by gas chromatography using a Varian® 3400 CX gas chromatograph with 1-propanol as an internal standard.
(§7) Tables 1, 3, and 5 show time to completion of fermentation, ethanol production, and volumetric productivity of the fermentation for all concentrations of the compound and the control. Maximum ethanol production is shown in grams/liter (g/L). The ethanol yield is shown in grams of ethanol/grams of added sugar. Maximum volumetric productivity is shown in grams ethanol/(liter)(hour). The average productivity is calculated form the start of fermentation to the completion of fermentation is grams ethanol/(liter)hour).
(§8) Tables 2, 4, and 6 show the initial growth of the cells (OD taken after the first 24 hours of fermentation) and the maximum cell density (the time which culture reaches the maximum OD value).
(§9) Acetaldehyde was added to the fermentation medium at five different concentrations and time points. […] Where two additions are indicated, the first volume was added at the start of fermentation and the second was added after 8 hours of fermentation.

[2] = test system: recombinant Escherichia coli KO11; assay: Batch fermentation of E. coli KO11 in Luria broth and xylose with nutrient additives: ethanol production and cell growth; conditions: LB+xylose
Description: as §1, §2, §3, §4, §5, §6, §7, §8, §9

[3] = test system: recombinant Escherichia coli KO11; assay: Batch fermentation of E. coli KO11 in 1% CSL medium and xylose with nutrient additives: ethanol production and cell growth; conditions: additive 2 g/L unless indicated; for activity at 2000 µg/mL: Escherichia coli
Description: as §1, §2
as §3, with “incubation. […]” for “incubation.”
as §5, §6, §7
Tables 2, 4, and 6 show the initial growth of the cells (OD taken after the first 24 hours of fermentation) and the maximum cell density (the time which culture reaches the maximum OD value). […]

[4] = additive 2 g/L unless indicated

N[C@@H](CCC(=O)O)C(=O)O [Glutamate, glutamate]
Ethanol Production Maximum ([1]; 1% CSL+glucose): 43.39 g/L | Ethanol Production Maximum % Control ([1]; 1% CSL+glucose): 117.30% | Ethanol yield ([1]; 1% CSL+glucose): 0.447 grams of ethanol/grams of added sugar | Initial Growth (OD @ 24 h) % Control ([1]; 1% CSL+glucose): 107.10% | Initial Growth (OD @ 24 h) OD ([1]; 1% CSL+glucose): 2.86 OD | Maximum Cell Density % Control ([1]; 1% CSL+glucose): 140.94% | Maximum Cell Density OD ([1]; 1% CSL+glucose): 3.79 OD | Maximum Cell Density Time ([1]; 1% CSL+glucose): 72 h | Time to completion ([1]; 1% CSL+glucose): 72 h | Volumetric Productivity Average ([1]; 1% CSL+glucose): 0.603 grams ethanol/(liter)(hour) | Volumetric Productivity Average % Control ([1]; 1% CSL+glucose): 156.40% | Volumetric Productivity Maximum ([1]; 1% CSL+glucose): 0.763 grams ethanol/(liter)(hour) | Volumetric Productivity Maximum % Control ([1]; 1% CSL+glucose): 148.52% | Ethanol Production Maximum [2, 4]: 44.67 g/L | Ethanol Production Maximum % Control [2, 4]: 103.69% | Ethanol yield [2, 4]: 0.460 grams of ethanol/grams of added sugar | Initial Growth (OD at 24 h) % Control [2, 4]: 106.21% | Initial Growth (OD at 24 h) OD [2, 4]: 10.61 OD | Maximum Cell Density % Control [2, 4]: 96.07% | Maximum Cell Density OD [2, 4]: 10.61 OD | Maximum Cell Density Time [2, 4]: 24 h | Time to completion [2, 4]: 48 h | Volumetric Productivity Average [2, 4]: 0.931 grams ethanol/(liter)(hour) | Volumetric Productivity Average % Control [2, 4]: 103.69% | Volumetric Productivity Maximum [2, 4]: 1.328 grams ethanol/(liter)(hour) | Volumetric Productivity Maximum % Control [2, 4]: 115.30% | Ethanol Production Maximum ([3]; 1% CSL+xylose): 43.14 g/L | Ethanol Production Maximum % Control ([3]; 1% CSL+xylose): 143.43% | Ethanol yield ([3]; 1% CSL+xylose): 0.444 grams of ethanol/grams of added sugar | Initial Growth (OD @ 24 h) % Control ([3]; 1% CSL+xylose): 180.49% | Initial Growth (OD @ 24 h) OD ([3]; 1% CSL+xylose): 3.69 OD | Maximum Cell Density % Control ([3]; 1% CSL+xylose): 200.16% | Maximum Cell Density OD ([3]; 1% CSL+xylose): 5.04 OD | Maximum Cell Density Time ([3]; 1% CSL+xylose): 96 h | Time to completion ([3]; 1% CSL+xylose): 96 h | Volumetric Productivity Average ([3]; 1% CSL+xylose): 0.449 grams ethanol/(liter)(hour) | Volumetric Productivity Average % Control ([3]; 1% CSL+xylose): 143.43% | Volumetric Productivity Maximum ([3]; 1% CSL+xylose): 0.665 grams ethanol/(liter)(hour) | Volumetric Productivity Maximum % Control ([3]; 1% CSL+xylose): 180.439%

CC(=O)C(=O)O [Pyruvate, pyruvate]
Ethanol Production Maximum ([1]; 1% CSL+glucose): 42.35 g/L | Ethanol yield ([1]; 1% CSL+glucose): 0.436 grams of ethanol/grams of added sugar | Initial Growth (OD @ 24 h) OD ([1]; 1% CSL+glucose): 3.46 OD | Maximum Cell Density OD ([1]; 1% CSL+glucose): 3.83 OD | Volumetric Productivity Average ([1]; 1% CSL+glucose): 0.441 grams ethanol/(liter)(hour) | Volumetric Productivity Maximum ([1]; 1% CSL+glucose): 0.663 grams ethanol/(liter)(hour) | activity at 2000 µg/mL ([1]; 24 h, 1% CSL+glucose, read-out: Initial Growth (OD @ 24 h) % Control): 129% | activity at 2000 µg/mL ([1]; read-out: Ethanol Production Maximum % Control, 1% CSL+glucose): 114% | activity at 2000 µg/mL ([1]; read-out: Volumetric Productivity Average % Control, 1% CSL+glucose): 114% | activity at 2000 µg/mL ([1]; read-out: Volumetric Productivity Maximum % Control, 1% CSL+glucose): 129% | activity at 2000 µg/mL ([1]; 1% CSL+glucose, read-out: Maximum Cell Density % Control): 142% | Ethanol Production Maximum ([2]; 2 g): 44.35 g/L | Ethanol Production Maximum % Control ([2]; 2 g): 102.96% | Ethanol yield ([2]; 2 g): 0.457 grams of ethanol/grams of added sugar | Initial Growth (OD at 24 h) % Control ([2]; 2 g): 113.09% | Initial Growth (OD at 24 h) OD ([2]; 2 g): 11.30 OD | Maximum Cell Density % Control ([2]; 2 g): 102.29% | Maximum Cell Density OD ([2]; 2 g): 11.30 OD | Maximum Cell Density Time ([2]; 2 g): 24 h | Time to completion ([2]; 2 g): 48 h | Volumetric Productivity Average ([2]; 2 g): 0.924 grams ethanol/(liter)(hour) | Volumetric Productivity Average % Control ([2]; 2 g): 102.96% | Volumetric Productivity Maximum ([2]; 2 g): 1.284 grams ethanol/(liter)(hour) | Volumetric Productivity Maximum % Control ([2]; 2 g): 111.47% | Ethanol Production Maximum ([2]; 4 g): 45.13 g/L | Ethanol Production Maximum % Control ([2]; 4 g): 104.76% | Ethanol yield ([2]; 4 g): 0.465 grams of ethanol/grams of added sugar | Initial Growth (OD at 24 h) % Control ([2]; 4 g): 114.64% | Initial Growth (OD at 24 h) OD ([2]; 4 g): 11.45 OD | Maximum Cell Density % Control ([2]; 4 g): 105.48% | Maximum Cell Density OD ([2]; 4 g): 11.65 OD | Maximum Cell Density Time ([2]; 4 g): 48 h | Time to completion ([2]; 4 g): 48 h | Volumetric Productivity Average ([2]; 4 g): 0.940 grams ethanol/(liter)(hour) | Volumetric Productivity Average % Control ([2]; 4 g): 104.76% | Volumetric Productivity Maximum ([2]; 4 g): 1.166 grams ethanol/(liter)(hour) | Volumetric Productivity Maximum % Control ([2]; 4 g): 101.27% | Ethanol Production Maximum ([3]; 1% CSL+xylose): 44.42 g/L | Ethanol yield ([3]; 1% CSL+xylose): 0.457 grams of ethanol/grams of added sugar | Initial Growth (OD @ 24 h) OD ([3]; 1% CSL+xylose): 4.11 OD | Maximum Cell Density Time ([3]; 1% CSL+xylose): 96 h | Volumetric Productivity Average ([3]; 1% CSL+xylose): 0.617 grams ethanol/(liter)(hour) | Volumetric Productivity Maximum ([3]; 1% CSL+xylose): 0.792 grams ethanol/(liter)(hour) | activity at 2000 µg/mL ([3]; 24 h, 1% CSL+xylose, read-out: Initial Growth (OD @ 24 h) % Control): 201% | activity at 2000 µg/mL ([3]; read-out: Ethanol Production Maximum % Control, 1% CSL+xylose): 148% | activity at 2000 µg/mL ([3]; read-out: Volumetric Productivity Average % Control, 1% CSL+xylose): 197% | activity at 2000 µg/mL ([3]; read-out: Volumetric Productivity Maximum % Control, 1% CSL+xylose): 215% | activity at 2000 µg/mL ([3]; 1% CSL+xylose, read-out: Maximum Cell Density % Control): 238%
